In the supplement of paper PMC8967900:

Tests used:
Assay in all cases: selective drug sensitivity score (sDSS, relative to normal bone marrow) (sDSS (score)); higher = more potent and effective on the cell line relative to normal bone marrow cells
Conditions in all cases: 72 h
697 = tested on: 697
CCRF-HSB2 = tested on: CCRF-HSB2
COG-LL-317 = tested on: COG-LL-317
COG-LL-319h = tested on: COG-LL-319h
COG-LL-355h = tested on: COG-LL-355h
COG-LL-394h = tested on: COG-LL-394h
COG-LL-402h = tested on: COG-LL-402h
HAL-01 = tested on: HAL-01
KASUMI-9 = tested on: KASUMI-9
KOPN-8 = tested on: KOPN-8
MN-60 = tested on: MN-60
MOLT-14 = tested on: MOLT-14
MOLT-16 = tested on: MOLT-16
MOLT-4 = tested on: MOLT-4
NALM-16 = tested on: NALM-16
NALM-6 = tested on: NALM-6
P12-ICHIKAWA = tested on: P12-ICHIKAWA
P30-OHKUBO = tested on: P30-OHKUBO
PEER = tested on: PEER
SUP-B15 = tested on: SUP-B15
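Further: ALL cell lines in 384-well plates, five doses spanning 10,000-fold, each plate scaled between vehicle and 100 µmol/L benzalkonium chloride controls, sDSS an adapted area-under-curve metric.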

Structure (SMILES)	selective drug sensitivity score 697	selective drug sensitivity score (CCRF-HSB2)	selective drug sensitivity score (COG-LL-317)	selective drug sensitivity score (COG-LL-319h)	selective drug sensitivity score (COG-LL-355h)	selective drug sensitivity score (COG-LL-394h)	selective drug sensitivity score (COG-LL-402h)	selective drug sensitivity score (HAL-01)	selective drug sensitivity score (KASUMI-9)	selective drug sensitivity score (KOPN-8)	selective drug sensitivity score (MN-60)	selective drug sensitivity score (MOLT-14)	selective drug sensitivity score (MOLT-16)	selective drug sensitivity score (MOLT-4)	selective drug sensitivity score (NALM-16)	selective drug sensitivity score (NALM-6)	selective drug sensitivity score (P12-ICHIKAWA)	selective drug sensitivity score (P30-OHKUBO)	selective drug sensitivity score (PEER)	selective drug sensitivity score (SUP-B15)
COc1cc2c(cc1-c1c(C)noc1C)ncc1[nH]c(=O)n([C@H](C)c3ccccn3)c12 [I-BET151] (top concentration 10000 nM)	9.36	0.06	6.56	10.7	1.86	0.86	5.46	1.26	11.2	11.8	6.76	0.46	5.96	-4.34	2.06	3.46	4.06	7.16	1.26	5.96
Cc1[nH]nc(C(F)(F)F)c1Cc1sc2c(c1C(=O)N1C[C@](C)(O)CO1)c(=O)n(C)c(=O)n2C(C)C [AZD3965] (top concentration 1000 nM)	3.6	0	0.3	0	0	0	0	1	2.7	0	0.9	0	0	0	0	11.1	0	1.8	0	7.1
COc1cc(Nc2ncc(F)c(Nc3ccc4c(n3)NC(=O)C(C)(C)O4)n2)cc(OC)c1OC [Tamatinib] (top concentration 10000 nM)	1.28	4.78	-5.42	-0.72	-1.52	-5.42	-1.22	-2.92	2.68	-2.12	-5.42	-4.62	-5.42	-5.42	-1.42	-5.42	-5.02	4.38	-5.42	-0.62
O=C(/C=C\n1cnc(-c2cc(C(F)(F)F)cc(C(F)(F)F)c2)n1)NNc1cnccn1 [Selinexor] (top concentration 10000 nM)	12.4	14.8	17.4	9.68	11.9	5.78	11.7	9.08	7.98	17.1	3.58	16.7	13.9	13.2	0.48	13	10.1	9.28	10.2	16.3
O=C(/C=C/c1cccc(S(=O)(=O)Nc2ccccc2)c1)NO [Belinostat] (top concentration 10000 nM)	10.1	10.2	12.9	11.8	10.2	2.1	12.6	5.6	8.9	17.8	1.8	12.2	10.1	7.6	2.5	7.4	8.6	8	7.8	8.5
CC(C)(C)c1cc(NC(=O)Nc2ccc(Oc3ccnc4[nH]c(=O)cnc34)cc2F)n(-c2ccccc2)n1 (top concentration 25000 nM)	4.72	3.12	-2.18	-1.08	1.92	0.82	-1.78	2.02	-1.18	2.22	0.42	-4.58	-1.08	-2.98	-2.78	-0.98	-4.58	-0.08	5.32	10.6
COc1c(C)cnc(Cn2cnc3c(Cl)nc(N)nc32)c1C [BIIB021] (top concentration 10000 nM)	4.28	10.8	10.2	1.78	0.38	-4.02	5.78	3.98	-1.22	12	-2.62	7.28	12.7	11.8	2.38	7.88	2.28	3.38	3.58	4.48
CC(C)Oc1ccc(-c2nn([C@@H](C)c3oc4ccc(F)cc4c(=O)c3-c3cccc(F)c3)c3ncnc(N)c23)cc1F [TGR-1202] (top concentration 2500 nM)	0.44	-2.06	-2.56	1.64	5.14	-1.46	-1.96	3.04	1.44	4.54	-2.56	-2.56	-2.46	-2.56	2.24	-1.16	-2.56	5.14	-1.86	1.14
CCn1c(-c2nonc2N)nc2c(C#CC(C)(C)O)ncc(OC[C@H]3CCCNC3)c21 (top concentration 10000 nM)	8.28	0.88	14.8	7.38	8.98	2.18	8.28	-0.62	0.98	7.08	0.08	1.68	11.6	8.68	2.68	8.78	4.68	3.88	1.68	-0.32
